Laboratory results: patent US5470859A (priority 1989, dated 1995)
Counter-ions that a name gives are not always drawn. Like-named read-outs stand apart in the source and are kept apart here.

What was measured:
[1] = biological target: muscarinic receptors; assay: Radio ligand binding: displacement of the muscarinic agonist 3H-Oxotremorine-M (3H-OXO-M), rat cerebral cortex; set-up: species or system Hooded Lister rats; conditions: 2 nM 3H-OXO-M, rat cerebral cortex membranes, 2 mM magnesium chloride, 37° C., 30 min
[2] = biological target: muscarinic receptors; assay type: binding, Hooded Lister rats; conditions: 0.27 nM 3H-QNB, rat cerebral cortex membranes, 37° C., 30 min

Row | SMILES | IC50 [1] [nM] | IC50 [2] [nM]
1 | C(=C1/CN2CCC1C2)/c1nccs1 (racemic) [Example E10, (±) Z 3-([1,3-Thiazol-2-yl]methin)-1-azabicyclo[2.2.1]heptane oxalate salt] | 165 | 2500
2 | C(=C1/CN2CCC1C2)/c1ncco1 (racemic) [Example E5, (±) Z 3-([1,3-Oxazol-2-yl]methin)-1-azabicyclo[2.2.1]heptane] | 8.6 | 1800
3 | Nc1noc(/C=C2\CN3CCC2C3)n1 (racemic) [Example E1, (±) Z 3-([3-Amino-1,2,4-oxadiazol-5-yl]methin)-1-azabicyclo[2.2.1]heptane] | 11.8 | 3200
4 | Cc1noc(/C=C2\CN3CCC2C3)n1 (racemic) [Example E2, (±) Z 3-([3-Methyl-1,2,4-oxadiazol-5-yl]methin)-1-azabicyclo[2.2.1]heptane oxalate salt] | 30 | 1900
5 | Nc1noc(C=C2CC3CCN(C2)C3)n1 (racemic) [Example E6, (±)E/Z 3-([3-Amino-1,2,4-oxadiazol-5-yl]methin)-1-azabicyclo[3.2.1]octane] | 520 | 5700
6 | C(=C1CN2CCC1C2)c1cnco1 (racemic) [Example E4, (±)E/Z 3-([1,3-Oxazol-5-yl]methin)-1-azabicyclo[2.2.1]heptane oxalate salt] | 294 | 27900
